In the assay the test system is Ctenocephalides felis. The experiment in a line: Flea (Ctenocephalides felis) Membrane Feed Assay-Adult. To be noted: for minimum effective concentration (MEC): assessed at 24 hours, 10-flea sample; for lethal dose 80% (LD80): adult fleas fed approx. 2 hours on treated citrated bovine blood, knockdown and/or death observed at approx. 2 and 24 hours. The method, then:
Flea (Ctenocephalides felis) Membrane Feed Assay-Adult
Formula (1) compounds were dissolved in DMSO and aliquots added to citrated bovine blood in a membrane covered Petri dish pre-warmed to 37° C. Feeding tubes containing approximately 30-35 adult fleas were placed onto the Petri dishes. The fleas fed for approximately 2 hours. […] Endpoint data is recorded as a lethal dose 80% (LD^80) in μg/mL. […] Further, the results can be assessed at 24 hours based on minimum effective concentration (MEC) in μM with a 10-flea sample.

The source of these data is US9073912B2, “Azetidine derivatives as antiparasitic agents” (Zoetis LLC, priority 2012, dated 2015).

Take `CS(=O)(=O)CC(=O)N1CC(F)(c2ccc(C3=NCC(c4cc(Cl)cc(Cl)c4)(C(F)(F)F)C3)cc2)C1` (centres unmarked) [Example 1, 1-(3-{4-[4-(3,5-dichloro-phenyl)-4-trifluoromethyl-4,5-dihydro-3H-pyrrol-2-yl]-phenyl}-3-fluoro-azetidin-1-yl)-2-methanesulfonyl-ethanone]: the “minimum effective concentration (MEC)” value worked out at 3 µM.
For `CS(=O)(=O)CC(=O)N1CC(F)(c2ccc(C3=NNC(c4cc(Cl)c(F)c(Cl)c4)(C(F)(F)F)C3)cc2)C1` (centres unmarked) [Example 18, 1-(3-(4-(5-(3,5-dichloro-4-fluorophenyl)-5-(trifluoromethyl)-4,5-dihydro-1H-pyrazol-3-yl)phenyl)-3-fluoroazetidin-1-yl)-2-(methylsulfonyl)ethanone], the “minimum effective concentration (MEC)” value worked out at 30 µM.
Take `CS(=O)(=O)CC(=O)N1CC(F)(c2ccc(C3=NCC(c4cc(Cl)c(Cl)c(Cl)c4)(C(F)(F)F)C3)cc2)C1` (centres unmarked) [Example 5, 1-(3-fluoro-3-{4-[4-(3,4,5-trichloro-phenyl)-4-trifluoromethyl-4,5-dihydro-3H-pyrrol-2-yl]-phenyl}-azetidin-1-yl)-2-methanesulfonyl-ethanone]: the “lethal dose 80% (LD80)” value is 1 µg/mL and the “minimum effective concentration (MEC)” value was 1 µM.
Consider `CC(C)C(=O)N1CC(F)(c2ccc(C3=NCC(c4cc(Cl)c(Cl)c(Cl)c4)(C(F)(F)F)C3)cc2)C1` (centres unmarked) [Example 6, 5-[4-(3-fluoro-1-isobutyrylazetidin-3-yl)phenyl]-3-(3,4,5-trichloro-phenyl)-3-(trifluoromethyl)-3,4-dihydro-2H-pyrrole], for which the “lethal dose 80% (LD80)” value worked out at 3 µg/mL.
`CC(C)C(=O)N1CC(F)(c2ccc(C3=NCC(c4cc(Cl)cc(Cl)c4)(C(F)(F)F)C3)cc2)C1` (centres unmarked) [Example 2, 1-(3-{4-[4-(3,5-dichloro-phenyl)-4-trifluoromethyl-4,5-dihydro-3H-pyrrol-2-yl]-phenyl}-3-fluoro-azetidin-1-yl)-2-methyl-propan-1-one]: the “lethal dose 80% (LD80)” value is 0.3 µg/mL and the “minimum effective concentration (MEC)” value stood at 1 µM.
Consider `CC(C)C(=O)N1CC(F)(c2ccc(C3=NCC(c4cc(Cl)c(F)c(Cl)c4)(C(F)(F)F)C3)cc2)C1` (centres unmarked) [Example 4, 3-(3,5-dichloro-4-fluorophenyl)-5-[4-(3-fluoro-1-isobutyrylazetidin-3-yl)phenyl]-3-(trifluoromethyl)-3,4-dihydro-2H-pyrrole], for which the “minimum effective concentration (MEC)” value was 1 µM.
For the molecule `CS(=O)(=O)CC(=O)N1CC(F)(c2ccc(C3=NCC(c4cc(Cl)c(F)c(Cl)c4)(C(F)(F)F)C3)cc2)C1` (centres unmarked) [Example 3, 3-(3,5-dichloro-4-fluorophenyl)-5-(4-{3-fluoro-1-[(methylsulfonyl)-acetyl]azetidin-3-yl}phenyl)-3-(trifluoromethyl)-3,4-dihydro-2H-pyrrole], the “lethal dose 80% (LD80)” value turned out to be 3 µg/mL and the “minimum effective concentration (MEC)” value is 1 µM.
Turning to `CC(C)C(=O)N1CC(F)(c2ccc(C3=NOC(c4cc(Cl)c(F)c(Cl)c4)(C(F)(F)F)O3)cc2)C1` (centres unmarked) [Example 8, 1-(3-{4-[5(3,5-dichloro-4-fluoro-phenyl)-5-trifluoromethyl-[1,4,2]dioxazol-3-yl]-phenyl}-3-fluoro-azetidin-1-yl)-2-methyl-propan-1-one], the “minimum effective concentration (MEC)” value came out at 30 µM.
